Data reported in patent US20250268873A1, “COMBINATION OF DUAL ATM AND DNA-PK INHIBITORS AND IMMUNOTHERAPEUTIC AGENTS FOR USE IN CANCER THERAPY” (XRAD THERAPEUTICS, INC., priority 2021, published 2025).

Test system: MC38 tumors
Assay: MC38 syngeneic murine tumor model
Type: in vivo
Conditions: for Day 20 regression: p<0.05
Protocol: The murine colon adenocarcinoma cell line, MC38-NCI.TD1 (MC38), was cultured in Dulbecco's modified Eagle's medium (DMEM), 10% fetal bovine serum (FBS), 25 μg/ml gentamicin, 2 mM L-glutamine, 1% penicillin/streptomycin/L-glutamine at 37° C. in 5% CO2. Cells were dissociated in 0.25% trypsin/2.21 mM ethylenediaminetetraacetic acid in Hank's Balanced Salt Solution and brought to a density of 5×10^6 cells/200 μL in DMEM. Tumors were initiated by injection of the cell suspension subcutaneously in the right axilla of female C57BL/6 mice (Jackson Laboratory). All mice were sorted into 7 study groups (n=10) based on caliper estimation of tumor burden. Mice were distributed to ensure that the mean tumor burden for all groups was within 10% of the overall mean tumor burden for the study population (90 mm^3). Mice were monitored daily for clinical signs and weighed and measured three times weekly. The study endpoint was 30 days post staging or when tumor burden was >2000 mm^3.
The vehicle for compound 569 was 0.5% hydroxypropyl methyl cellulose (HPMC) and 0.1% Tween 80 dissolved in deionized water. Vehicle for compound 569 and compound 569 (12 mg/kg) were administered by oral gavage once daily starting the day of staging for two consecutive days (qd×2), in combination with focal radiation. Mice stratified to the radiation therapy groups received 5 Gy per day for two consecutive days (qd×2) 60 minutes following administration of the vehicle or compound 569. The mice were anesthetized with isoflurane during the radiation treatment, which was performed with the Xstrahl Life Sciences Small Animal Radiation Research Platform (Xstrahl, Inc.) Mice were irradiated at an average dose rate of 2.5 Gy/min.
The vehicle for isotype control (clone 2A3) anti-mouse PD-1 (anti-mPD-1; Bio X Cell) and anti-mPD-1 (Clone RMP1-14; Bio X Cell) was phosphate buffered saline (PBS). Isotype control anti-mPD-1 (10 mg/kg) and anti-mPD-1 (10 mg/kg) were administered intraperitonealy twice weekly for 2 weeks starting day 2 post staging. Treatment schedules for the various groups of animals are summarized below: • Group 1 mice received vehicle qd×2+10 mg/kg isotype control (q3d×2, 3 days off)×2; start 2 days post stage. • Group 2 mice received 10 mg/kg anti-mPD-1 (q3d×2, 3 days off)×2; start 2 days post stage. • Group 3 mice received focal irradiation 5 Gy qd×2+10 mg/kg isotype control (q3d×2, 3 days off)×2; start 2 days post stage. • Group 4 mice received focal irradiation 5 Gy qd×2+10 mg/kg anti-mPD-1 (q3d×2, 3 days off)×2; start 2 days post stage. • Group 5 mice received 12 mg/kg Compound 569 qd×2 (1 hr prior to focal irradiation)+5 Gy qd×2 • Group 6 mice received 12 mg/kg Compound 569 qd×2+10 mg/kg anti-mPD-1 (q3d×2, 3 days off)×2; start 2 days post stage. • Group 7 mice received 12 mg/kg Compound 569 qd×2 (1 hr prior to focal irradiation)+5 Gy qd×2+10 mg/kg anti-mPD-1 (q3d×2, 3 days off)×2; start 2 days post stage.
• ΔC and ΔT—Are individual mouse endpoints that are calculated for each mouse as follows:
[formula] • Where Tt and T0 are the tumor burdens of a treated mouse at time t or at the initiation of dosing, respectively. ΔC reflects similar calculations for the control mice. • Median ΔT/ΔC—Is a group endpoint. It is calculated for each day of treatment as:
[formula] • The results are presented as a %. When the median ΔT/ΔC is negative (the median treated tumor burden is regressing), the median ΔT/ΔC is not reported and the Median % Regression is reported instead. • % Regression—Is a group endpoint. It indicates the percentage reduction in the Median tumor volume from baseline. It is calculated as: […]
Day 20 post staging was chosen for ΔT/ΔC since it was the last day all animals were on study prior to euthanasia due to tumor burden. • Complete Regression (CR)—An animal is credited a complete regression if its tumor burden is reduced to an immeasurable volume at any point after the first treatment. […]

[1] = Group 5: compound 569 12 mg/kg qd×2 + radiation 5 Gy qd×2
[2] = Group 7: compound 569 + radiation + anti-mPD-1

CC(C)NCCOc1ncc(-c2cc3c4c(cnc3cc2F)N(C)C(=O)C42CCC2)cc1NS(C)(=O)=O [Compound 569, N-(5-(7′-Fluoro-3′-methyl-2′-oxo-2′,3′-dihydrospiro[cyclobutane-1,1′-pyrrolo[2,3-c]quinolin]-8′-yl)-2-(2-(isopropylamino)ethoxy)pyridin-3-yl)methanesulfonamide]
incidence of complete regressions (CR) [1]: 50% | incidence of tumor free survivors (TFS) [1]: 30% | Day 20 regression [1]: 22% | Day 20 median ΔT/ΔC (Group 6: compound 569 12 mg/kg po qd×2 + anti-mPD-1 10 mg/kg ip, p>0.05): 64% | incidence of death (Group 6: compound 569 12 mg/kg qd×2 + anti-mPD-1 10 mg/kg, 1 death, n=10): 10% | Day 20 regression (Group 7: compound 569 12 mg/kg qd×2 + radiation 5 Gy qd×2 + anti-mPD-1 10 mg/kg): 99% | incidence of complete regressions (CR) [2]: 90% | incidence of tumor free survivors (TFS) [2]: 90%
